US20250295631A1, “NOVEL TREATMENT” (University of Liverpool, priority 2022, published 2025)
“And” between values parts separate entries of the source, which are not always exact repeats. Equal values may be shown once. “Also recorded” adds a separate entry of the source. Read-outs that look alike come from different tables or passages of the source. Values belong to the compound of their own block, whether it stands above or below them.

Experiments:
ex vivo porcine corneas = test: Ex vivo tensile testing of cross-linked porcine corneas (elastic modulus); parameters: species or system domestic pig (Sus domesticus)
Method: Eyes of the domestic pig (Sus domesticus) are collected from a local abattoir 0-4 hours post-mortem. Eyes are cleaned of excess tissue and fat and washed in PBS containing 200 U penicillin and 0.2 mg/ml streptomycin and 5 μg/ml amphotericin B (Merch Life Science, Dorset, UK). The eyes are stored in a petri dish containing the PBS antibiotic/antimycotic solution, corneas facing up, at 4° C. overnight.
The porcine eyes are removed from 4° C. and allowed to warm to room temperature. One-to-two drops of Minims Proxymetacaine hydrochloride 0.5% w/v (Bosch & Lomb, Surrey, UK) were applied to the cornea for 15 minutes, with additional drops added ever 5 minutes and then 2-3 minutes before treatment. After which a suction ring (E.Janach, Como, Italy) was attached to the cornea (FIG. 1) and 200 μl of BS^3 solution was added inside the ring. Eyes were incubated for 5, 15 or 30 mins at 37° C.; after which the BS^3 solution was aspirated and retained for pH measurement, and eyes were rinsed in PBS then stored, cornea facing down, in a 6-well plate with fresh PBS until tensile measurement.
Suction rings were applied to porcine corneas as in FIG. 1 and 18% ethanol solution was applied for 30 seconds before being adsorbed by a sponge spear. The cornea was then rinsed with PBS. After this the epithelium was removed with a corneal scraper and sponge spear. Once the epithelium was removed 0.1% riboflavin (Vibex Rapid™, Avedro Inc, MA, USA) was applied every 3 mins. Riboflavin was applied for a total of 30 mins for the Dresden protocol and 15 minutes for the Accelerated protocol.
After riboflavin treatment eyes were cross-linked by UVA light using and KXL System (Avedro Inc). UV light was applied at 3 mW/cm^2 for 30 mins for the Dresden protocol and 6 mW/cm^2 for 15 mins for the Accelerated protocol for a total applied energy of 5.4 J/cm^2 for both protocols.
The anterior section of the eye was removed by cutting around the globe 5-10 mm posteriorly from the limbus. The iris and ciliary process were removed from the posterior section of the tissue leaving only sclera and cornea. A strip of tissue was cut using a custom-made replaceable razor blade jig. Tissue thickness and width (determined as the distance between cutting edges) were measured with calipers.
(§1) The tissue strip was mounted in the grips of a Univert tensile tester (CellScale, Ontario, Canada) with a 50 N load cell. Tissue was stretched at a rate of 125 μm/s until failure. Data was captured at 1 Hz. Stress-strain curves were plotted and the elastic modulus was determined at a range of strains: 5-10%, 10-15%, 20-25% and 30-35%. Data were trimmed to 3% from the strain at ultimate tensile strain and 6 term polynomial equations we determined from each curve. […] These polynomials represent the stress-stain response of each cornea and were used to create an average stress-strain curve for the samples.
Ex vivo mechanical data were compared by One-way ANOVA and Tukey's post-hoc.

[1] = Method: To investigate cross-linker stability 0.2 M BS^3 was prepared in various buffers. The pH was measured using a SevenGO SG2 pH meter with an InLab Ultra-Micro-ISM electrode (Mettler Toldedo, Leicester, UK). Nine carbonate buffer and two phosphate buffer formulations were investigated. All were prepared in deionised H2O. Formulations can be seen in Table 1 below. The pH of BS^3 at concentrations of 0.2 M and 0.035 M (20 mg/ml as per patent US2014/0271897 A1 claim [0358]) in phosphate buffered saline (PBS) were also measured. The pH was measured immediately after addition BS3 and filtration (00:00) then at 30 mins, 1 hour, 2 hours, 3 hours, 4 hours, 24 hours.
BS^3 (bis(sulfosuccinimidyl)suberate, Thermo Scientific Pierce, IL, USA) solutions was prepared to concentrations of 0.2 M in the buffer solution, vortexed for 1 min and then filtered through 0.2 μm filter.

rabbit corneas [2] = conditions: in vivo
Method: (§2) Male Wistar rats (300 g) and mixed sex New Zealand rabbits (1.5-3 kg), both specific-antigen free, were ordered from Charles River UK and ENVIGO, respectively. They were allowed a minimum of 7 days acclimatisation prior to procedures. Animals were anaesthetised and proxymetacaine hydrochloride 0.5% w/v was applied to the corneas. For the rats, a 2 cm section of silicone tubing was placed on the cornea whereas for the rabbits the suction ring (as above) was placed on the cornea, and 200 μl of the sterile filtered 0.2 M BS^3 solution was instilled for 15 mins. Following this, eyes were rinsed with saline. Animals were provided with antibiotic/steroid drops (Tobradex, Novartis Pharmaceuticals UK Ltd, London, UK) daily and were monitored for any signs for distress or ocular discomfort.
(§3) The animals were euthanised at pre-determined time points (rats at 24 hours and 7 days; rabbits at 3 days post-treatment). Aqueous humour was collected. Rat ocular tissue was collected and fixed in 10% paraformaldehyde for histology. […]
(§4) Corneal thickness and transparency were determined using optical coherence tomography (OCT) (ENVISU R2210, Leica Microsystems, Milton Keynes, UK) before treatment and prior to euthanasia. Corneal transparency was determined by the intensity of the pixels within the cornea minus background intensity from the corneal sections of the OCT images. […]

rat corneas = conditions: in vivo
Method: as §2, §3, §4

[3] = system: inflammatory cytokines in rat aqueous humour; conditions: in vivo
Method: as §2
(§5) The animals were euthanised at pre-determined time points (rats at 24 hours and 7 days; rabbits at 3 days post-treatment). Aqueous humour was collected. Rat ocular tissue was collected and fixed in 10% paraformaldehyde for histology. Rabbit the eyes enucleated and prepared for mechanical testing which was conducted the following day and the remaining cornea was fixed. Ocular tissue was also fixed in 10% paraformaldehyde.
(§6) Statistical analyses were performed with Prism 9.3.1 (GraphPad Software, San Diego, CA, USA). In vivo data were compared by paired t-tests to contralateral control eyes.

rabbit corneas [4] = test: Rabbit corneal tensile measurements after in vivo treatment; parameters: species or system New Zealand rabbits; conditions: for Percentage Change in Modulus After 3 Days Compared to Control / Percentage Change in Modulus Compared to Control: 0.2M BS^3 for 15 mins; for Percentage Change in Modulus After 3 Days Compared to Control: 3 days after treatment; for Percentage Change in Modulus Compared to Control: 28 days after treatment
Method: as §1, §2
as §5, with “Aqueous” for “The animals were euthanised at pre-determined time points (rats at 24 hours and 7 days; rabbits at 3 days post-treatment). Aqueous”
Rabbit eyes were collected immediately after culling and were stored in a petri dish containing the PBS antibiotic/antimycotic solution, corneas facing up, at 4° C. overnight. Mechanical testing was conducted using the protocol above for ex vivo porcine tissue.
as §6

[5] = Accelerated UV/Riboflavin protocol, strain range 5-10%
[6] = Dresden UV/riboflavin protocol, strain range 5-10%

Compound: Cc1cc2nc3c(=O)[nH]c(=O)nc-3n(C[C@H](O)[C@H](O)[C@H](O)CO)c2cc1C [Accelerated, riboflavin, reference compound]
Percentage Change in Modulus Compared to Control (ex vivo porcine corneas; [5]): 79% | difference in elastic modulus compared to control (ex vivo porcine corneas; [5]): not significantly different | elastic modulus (ex vivo porcine corneas; [5]): 5.45±2.97 MPa | Percentage Change in Modulus Compared to Control (ex vivo porcine corneas; Accelerated UV/riboflavin protocol, strain range 10-15%): 46% | Percentage Change in Modulus Compared to Control (ex vivo porcine corneas; Accelerated UV/riboflavin protocol, strain range 20-25%): 28% | Percentage Change in Modulus Compared to Control (ex vivo porcine corneas; Accelerated UV/riboflavin protocol, strain range 30-35%): 16%

Compound: Cc1cc2nc3c(=O)[nH]c(=O)nc-3n(C[C@H](O)[C@H](O)[C@H](O)CO)c2cc1C [Dresden, riboflavin, reference compound]
Percentage Change in Modulus Compared to Control (ex vivo porcine corneas; [6]): 158% | elastic modulus (ex vivo porcine corneas; [6]): 7.99±4.58 MPa | Percentage Change in Modulus Compared to Control (ex vivo porcine corneas; Dresden UV/riboflavin protocol, strain range 10-15%): 123% and 124% | Percentage Change in Modulus Compared to Control (ex vivo porcine corneas; Dresden UV/riboflavin protocol, strain range 20-25%): 62% | Percentage Change in Modulus Compared to Control (ex vivo porcine corneas; Dresden UV/riboflavin protocol, strain range 30-35%): 34%

pH by 30 minutes ([1]; 20 mg/ml (0.035 M) BS^3 in PBS (Dulbecco A), formulation of US2014/0271897 A1 [0358]): 5.18 | precipitation ([1]; 0.2 M BS^3 in 0.1 M and 0.2 M carbonate buffers, at 24 hours): Precipitation was observed | initial pH after the addition of 0.2 M BS^3 ([1]; 0.2 M BS^3 in 0.5 M carbonate buffers): > 7 | pH over the 24 hour testing period ([1]; 0.2 M BS^3 in 0.5 M carbonate:bicarbonate buffer, ratio 5:5): > 6 | precipitation ([1]; 0.2 M BS^3 in 0.5 M carbonate:bicarbonate buffer, ratio 5:5, 24 hour testing period): did not have any precipitation | pH over the 24 hour testing period ([1]; 0.2 M BS^3 in 0.5 M carbonate:bicarbonate buffer, ratio 9:1): > 6 | precipitation ([1]; 0.2 M BS^3 in 0.5 M carbonate:bicarbonate buffer, ratio 9:1, 24 hour testing period): did not have any precipitation | reduction in corneal thickness in the treated eyes vs contralateral control (rabbit corneas [2]): 100±20 μm | reduction in corneal thickness in the treated eye vs contralateral control (rat corneas): 42±29 μm | change in IL-2 in aqueous humour, treated vs control eyes [3]: −0.76 fold | change in IL-4 in aqueous humour, treated vs control eyes [3]: −0.63 fold | reductions in IL-2 and IL-4 in aqueous humour [3]: resolved by day 7
Compound: bis(sulfosuccinimidyl)suberate [BS3]
Percentage Change in Modulus Compared to Control (ex vivo porcine corneas; 20 mg/ml (0.035 M) BS3 in PBS (US2014/0271897 A1 [0358]), strain range 5-10%): −28% | Percentage Change in Modulus Compared to Control (ex vivo porcine corneas; 20 mg/ml (0.035 M) BS3 in PBS (US2014/0271897 A1 [0358]), strain range 10-15%): −10% | Percentage Change in Modulus Compared to Control (ex vivo porcine corneas; 20 mg/ml (0.035 M) BS3 in PBS (US2014/0271897 A1 [0358]), strain range 20-25%): 3% | Percentage Change in Modulus Compared to Control (ex vivo porcine corneas; 20 mg/ml (0.035 M) BS3 in PBS (US2014/0271897 A1 [0358]), strain range 30-35%): 15% | difference in elastic modulus compared to control (ex vivo porcine corneas; 20 mg/ml (0.035 M) BS^3 in PBS, any of the strain ranges, p>0.05): no significant difference | Percentage Change in Modulus Compared to Control (ex vivo porcine corneas; 0.2M BS3, 5 min treatment, strain range 5-10%): 76% | Percentage Change in Modulus Compared to Control (ex vivo porcine corneas; 0.2M BS3, 5 min treatment, strain range 10-15%): 60% | Percentage Change in Modulus Compared to Control (ex vivo porcine corneas; 0.2M BS3, 5 min treatment, strain range 20-25%): 42% | Percentage Change in Modulus Compared to Control (ex vivo porcine corneas; 0.2M BS3, 5 min treatment, strain range 30-35%): 12% | Percentage Change in Modulus Compared to Control (ex vivo porcine corneas; 0.2M BS3, 15 min treatment, strain range 5-10%): 109% | Percentage Change in Modulus Compared to Control (ex vivo porcine corneas; 0.2M BS3, 15 min treatment, strain range 5-10%, listed as BS^3): 109% | Percentage Change in Modulus Compared to Control (ex vivo porcine corneas; 0.2M BS3, 15 min treatment, strain range 10-15%): 68% | Percentage Change in Modulus Compared to Control (ex vivo porcine corneas; 0.2M BS3, 15 min treatment, strain range 10-15%, listed as BS^3): 68% | Percentage Change in Modulus Compared to Control (ex vivo porcine corneas; 0.2M BS3, 15 min treatment, strain range 20-25%): 43% | Percentage Change in Modulus Compared to Control (ex vivo porcine corneas; 0.2M BS3, 15 min treatment, strain range 30-35%): 18% | Percentage Change in Modulus Compared to Control (ex vivo porcine corneas; 0.2M BS3, 15 min treatment, strain range 30-35%, listed as BS^3): 18% | Percentage Change in Modulus Compared to Control (ex vivo porcine corneas; 0.2M BS3, 30 min treatment, strain range 5-10%): 56% | Percentage Change in Modulus Compared to Control (ex vivo porcine corneas; 0.2M BS3, 30 min treatment, strain range 10-15%): 54% | Percentage Change in Modulus Compared to Control (ex vivo porcine corneas; 0.2M BS3, 30 min treatment, strain range 20-25%): 45% | Percentage Change in Modulus Compared to Control (ex vivo porcine corneas; 0.2M BS3, 30 min treatment, strain range 30-35%): 22% | stiffness (elastic modulus) (ex vivo porcine corneas; 0.2 M BS^3 in 0.5 M carbonate:bicarbonate 9:1, 5 min treatment, strain range 5-10%): 5.43±2.23 MPa | stiffness (elastic modulus) (ex vivo porcine corneas; 0.2 M BS^3 in 0.5 M carbonate:bicarbonate 9:1, 15 min treatment, strain range 5-10%): 6.47±2.23 MPa | stiffness (elastic modulus) (ex vivo porcine corneas; 0.2 M BS^3 in 0.5 M carbonate:bicarbonate 9:1, 30 min treatment, strain range 5-10%): 4.84±2.02 MPa | Percentage Change in Modulus After 3 Days Compared to Control (rabbit corneas [4]; strain range 5-10%): −6% | Percentage Change in Modulus After 3 Days Compared to Control (rabbit corneas [4]; strain range 10-15%): 15% | Percentage Change in Modulus After 3 Days Compared to Control (rabbit corneas [4]; strain range 15-20%): 43% | Percentage Change in Modulus After 3 Days Compared to Control (rabbit corneas [4]; strain range 20-25%): 104% | Percentage Change in Modulus Compared to Control (rabbit corneas [4]; strain range 5-10%): 22% | Percentage Change in Modulus Compared to Control (rabbit corneas [4]; strain range 10-15%): 29% | Percentage Change in Modulus Compared to Control (rabbit corneas [4]; strain range 15-20%): 28% | Percentage Change in Modulus Compared to Control (rabbit corneas [4]; strain range 20-25%): 38% | effect on stiffness of corneal tissue vs untreated control eye (rabbit corneas [4]; 3 days, lower strain ranges (5-10% & 10-15%)): No significant difference; also recorded: insignificant effect | effect on stiffness of corneal tissue vs untreated control eye (rabbit corneas [4]; 28 days, lowest and highest strain ranges): No significant difference
